Values of other authors, collected in US20120276003A1, “COMPOUND CONTAINING AN OXYGEN-15, PREPARATION AND USE THEREOF, AND COMPOSITION COMPRISING THEREOF” (Beijing Top Grade Medical Equipment Co., Ltd., priority 2011, published 2012).

Details: perfusion imaging agent; stated 'academically'

- one-time through uptake rate: ~100%
Structure (SMILES): [15OH2] [^15O-water]
